Reference: publication PMC7822874, “Chemoprotective antimalarials identified through quantitative high-throughput screening of Plasmodium blood and liver stage parasites” (Scientific Reports, 2021)
Read-outs that look alike come from different tables or passages of the source.

Tests used:
[1] = test system: Plasmodium falciparum Dd2 asexual blood stage parasites; assay: microbe, parasite or virus in culture; parameters: species or system Plasmodium falciparum Dd2 in human erythrocytes; single determination (one 11-point concentration-response curve); conditions: 72 h
in vitro = conditions: human
[2] = test system: P. berghei-ANKA-GFP-LucCON liver stage parasites in HepG2-A16-CD81EGFP cells; assay: P. berghei liver stage Pb-Luc assay, Method 1 (UCSD, 1536-well); type: cell-based, Plasmodium berghei; conditions: Plasmodium berghei, 48 h, average of 2 wells on a 1536 well plate; for activity at 1 µM: 1 uM (compounds provided at 10 mM); for activity at 3 µM: 3 uM (compounds provided at 10 mM)
[3] = Plasmodium falciparum, DD2, Erythrocyte, read-out: AC50
[4] = HepG2-A16-CD81EGFP cells, uninfected

SMILES	AC50 [1, 3]	viability at 48 h, 1 µM (in vitro; [4])	viability at 48 h, 3 µM (in vitro; [4])	further results
Oc1ccc(Cl)cc1CNCc1ccc(C(F)(F)F)cc1 [MLS002207454-01]	4220 nM	–	–	viability at 66 h (in vitro; [4]): 109%
CCCCn1c2c(c(=N)c3c1CCC3)CCC2 [MLS000080126-01]	8410 nM	111%	80%	–
O=C(NCCCN1CCCC1)c1ccc2c(c1)N([S+](=O)([O-])c1ccccc1F)CC2 [NCGC00430450-01]	9440 nM	–	–	viability at 66 h (in vitro; [4]): 97.4%
CC(C)C(=O)OCC(=O)[C@@]12O[C@H](C3CCCCC3)O[C@@H]1C[C@H]1[C@@H]3CCC4=CC(=O)C=C[C@]4(C)[C@H]3[C@@H](O)C[C@@]12C [NCGC00167484-01]	2660 nM	97%	94%	–
Cc1ccccc1Nc1cc(C)c2c(O)cccc2n1 [MLS000586981-01]	5310 nM	105%	100%	–
O=C(/C=C/c1ccco1)NC(S)=Nc1ccccc1N1CCCC1 [MLS000663784-01]	2660 nM	107%	–	viability at 48 h (in vitro; [4]): 107%
CCOCc1cnc(C)nc1NCC(=O)c1c(C)[nH]c2cc(C)ccc12 [MLS000595215-01]	4220 nM	97%	94%	–
COc1cccc(CNCC(O)(c2ccc(Cl)cc2)c2ccc(Cl)cc2)c1 [MLS000325699-01]	–	106%	101%	activity at 1 µM ([2]; column 11, read-out: Pb-Luc (P. berghei liver stage), % of control, lower concentration, first repeat): 124%; activity at 1 µM ([2]; column 12, read-out: Pb-Luc (P. berghei liver stage), % of control, lower concentration, second repeat): 99%; activity at 3 µM ([2]; column 8, read-out: Pb-Luc (P. berghei liver stage), % of control, higher concentration, first repeat): 99%; activity at 3 µM ([2]; column 9, read-out: Pb-Luc (P. berghei liver stage), % of control, higher concentration, second repeat): 98%
O=S(=O)(c1ccc2ccccc2c1)N1CCN(C(S)=Nc2ccc(F)c(Cl)c2)CC1 [MLS000394708-01]	1060 nM	111%	98%	–
c1ccc2c(NCCc3c[nH]c4ccccc34)c3ccccc3nc2c1 [MLS001195935-01]	1880 nM	92%	83%	–
CCCCN(C(=O)c1ccco1)c1nnc(-c2cc(OC)c(OC)c(OC)c2)s1 [MLS000075381-01]	2990 nM	–	–	viability at 66 h (in vitro; [4]): 104%
CCN1CCCC1CNc1ncnc2c1[nH]c1ccc(Cl)cc12 (stereo not shown) [MLS000041736-01]	–	98.5%	–	AC50 ([1]; Plasmodium falciparum, DD2, Erythrocyte): 2990 nM; viability at 48 h (in vitro; [4]): 98.5%
Cc1ccc2sc(N3CCN(C(=O)c4ccc([N+](=O)[O-])o4)CC3)nc2c1C [MLS001234068-01]	5310 nM	111%	105%	–
COc1cc(O)c(C(CCN2CCCC(C)C2)c2ccc(N(C)C)cc2)c(OC)c1 (stereo not shown) [MLS000879516-01]	1680 nM	110%	–	viability at 48 h (in vitro; [4]): 110%
CCN(CC)CCN1C(=O)c2ccccc2NC1c1ccc(C)cc1 (stereo not shown) [MLS000558946-01]	2990 nM	98%	104%	–
Cc1ccccc1OCC(O)CN(Cc1ccccc1O)C1CCCCC1 (stereo not shown) [MLS001002964-01]	119 nM	85%	90%	–
CC(C)N1C(=S)N(Cc2ccco2)C(=O)C1CC(=O)Nc1ccccc1 (stereo not shown) [MLS000729199-01]	1680 nM	99%	109%	–
CC(C)Oc1ccc(C(CCNCc2ccc(O)cc2)c2ccccc2)cc1 (stereo not shown) [MLS001164341-01]	668 nM	–	–	viability at 66 h (in vitro; [4]): 102%
CCOc1ccc(NC2=C(OC)C(=O)c3ccccc3C2=O)cc1 [MLS000588108-01]	376 nM	101%	98%	–
O=C(c1cnn2c(C(F)F)cc(-c3ccccc3)nc12)N1CCCCC1c1cccnc1 (stereo not shown) [MLS000728797-01]	8410 nM	102%	–	viability at 48 h (in vitro; [4]): 102%
Oc1ccc(C2NCc3ccccc3-n3cccc32)cc1Cl (stereo not shown) [MLS000878874-01]	–	–	–	AC50 ([1]; read-out: AC50): 1190 nM; viability at 66 h (in vitro): 108%
NNC(=O)CN1C(c2cccc(Cl)c2)=Nc2ccc(Br)cc2C1c1ccccc1 (stereo not shown) [MLS000558682-01]	2660 nM	90%	89%	–
CCc1cc2c(Sc3nc4ccccc4s3)ncnc2s1 [MLS000544746-01]	1500 nM	104%	101%	–
